Patent US20240091169A1, “POL[…] FOR TREATING INFLAMMATORY DISEASES” (UNIVERSITY OF SOUTH CAROLINA, priority 2022, published 2024)

Legend:
[1] = tested on: BMDMs incubated with IL-4 (M2 media); assay: M2 macrophage polarization of BMDMs with IL-4 (flow cytometry); format: cell-based, C57BL/6 mice; conditions: 1 μM PA, M2 media (IL-4), 24 hr, vs VEH
Protocol: Bone marrow-derived macrophages (BMDMs) were isolated from healthy 10-14-week-old C57BL/6 male mice. Briefly, mice were euthanized by isoflurane overdose. Femurs were cleared of muscle and debris. The epiphyses of the femurs were cut and placed knee-down and spun down in a 1.5 mL tube. Bone marrow was collected and resuspended in complete DMEM (cDMEM; 10% FBS, 1% penicillin/streptomycin) and passed through two 100 μm strainers. Cells were plated on an untreated 10 cm dish in cDMEM and allowed to incubate at 37° C. for 4 hr. Adherent/mature monocytes and dendritic cells were discarded, while floating/immature monocytes were collected. Cells were subjected to RBC lysis and resuspended in bone marrow maintenance media (BMMM; 20% L929-conditioned media in cDMEM). Cells were then plated on surface-treated 6-well plates at a 250 k cells/well seeding density. On day 3, fresh BMMM was added. On day 5, media was aspirated and fresh BMMM was added. For M2 macrophage polarization experiments, 6-day mature macrophages were given either cDMEM+VEH, M2 media (cDMEM with 10 ng/mL IL-4)+VEH, or M2 media+1 μM PA. Cells were incubated for 24 hr. For C26 colon tumor conditioned media (C26 CM) experiments, 6-day mature macrophages were given either serum-free media (SFM)+VEH, 33% C26-conditioned media (C26 CM)+VEH, or 33% C26 CM+1, 2.5, or 5 μM PA. Cells were incubated for 48 hr. After incubation with these different treatments, cells were washed twice with PBS and incubated with 5 mM EDTA PBS at 4° C. for 20 min. Cells were then gently scraped and transferred into flow tubes, spun at 1600 rpm at 4° C. for 5 min, and washed in PBS before antibody staining. Cells were stained and analyzed for macrophages via flow cytometry as described above with the addition of analyzing macrophage phenotypes. From the CD11b^+CD68^+ macrophage population, macrophage phenotypes were determined based on CD206 and CD11c expression. […] All cells were measured using a FACS Aria II (BD) and analyzed using FlowJo (BD Biosciences). […]

[2] = tested on: DSS-induced acute colitis; assay: DSS mouse model, Experiment 2: acute colitis; format: in vivo, C57BL/6 female mice
Protocol: Experiment 2—Acute Colitis: 14-week-old C57BL/6 female mice were given 1 cycle of 2% DSS in drinking water for 7 days, immediately followed by 7 days of regular drinking water. Either vehicle or panaxynol was administered 3×/week beginning on the day prior to the first DSS cycle (day −1) until study completion (FIG. 10A). To ensure the induction of colitis and to quantify disease states, colitis symptoms were monitored every other day using the same DAI as above. Mice were euthanized on day 14—one day after the last dose of panaxynol was given. Colons were placed in the appropriate buffers for further analysis. Data presented in FIGS. 10-14 (i.e., histology, immunofluorescence, electron microscopy, and flow cytometry) was obtained using colonic tissue from 2 cohorts of Experiment 2—Acute Colitis.
Panaxynol (PA; C17H24O) was purchased from Biopurify Pytochemicals Ltd in sealed 5 mg/mL vials in pure 95% ethanol and stored at −20° C. PA was prepared fresh on the day of treatment by diluting in H2O to 1 mg/mL for administration (p.o.) at a dosage of 2.5 mg/kg. This dosage was chosen following a pilot dose-response study to determine PA's efficacy. […]
All mice underwent the same symptom monitoring and scoring. […] Symptom scores were calculated by scoring percent body weight loss, stool consistency, and rectal bleeding as previously described. Briefly, fresh colonic evacuates were smeared onto “Hemoccult” tape (Beckman Coulter) to assess severity of diarrhea and were tested with developer (Beckman Coulter) to assess rectal bleeding. Stool consistency was scored as follows: solid cylinder (0), soft cylinder and easily spreadable (2), and noncylindrical or runny (4). Bleeding was scored as follows: no positive detection of blood (0), detection of blood but not grossly visible (2), and gross visibility of blood (4). Body weight was calculated as percent bodyweight loss: 0%-5% (0), 6%-10% (1), 11%-15% (2), 15%-20% (3), 20%-25% (4), and >25% (5). Scores of all three categories were summed to obtain an overall symptom score for each mouse.
Prior to euthanasia, colonoscopies were performed (n=3/group) to visualize the colonic tissue and quantify the severity of disease (colitis and colorectal tumors) using an established protocol. Briefly, mice were anesthetized with isoflurane to perform a detailed endoscopic examination in which the endoscope was gently inserted into the rectum and through the anus. Air was applied to slowly set apart the intestinal walls for examination. As the scope advanced, pictures were taken frequently and the following were meticulously assessed and scored by the blinded primary investigator using the well-established scoring system to integrate evaluation of intestinal inflammation (i.e., focal lesions (edematous areas of mucosa, erosions/reddened areas, ulcers), perianal region findings (diarrhea, bloody anal discharge, or prolapse), transparency of the colonic wall (visualization of the intramural blood vessels), and presence of intestinal bleeding) and tumors. Scoring was performed as previously described with no modifications. Upon completion of colonoscopies, mice were placed on a warm pad set at 37° C. for 5 min.
Lamina propria (LP) cells were isolated from colons to be used for flow cytometry to identify immune cell populations within the colonic LP. Colons were rinsed in sterile ice-cold PBS and minced with scissors. Tissues were subjected to a cell dissociation solution (HBSS without Ca^2+Mg^2+ containing 5 mM EDTA and 1 mM DTT) in a shaking incubator for 30 min at 37° C. Tubes containing dissociated tissues were vortexed and passed through a 100 μm cell strainer; flow through containing intestinal epithelial cells (IECs) was discarded. Remaining tissue was subjected to a cell digestion buffer (HBSS with Ca^2+Mg^2+ containing 5% FBS, 5 mg/mL Collagenase D, 50 μg/mL DNase 1, and 1 U/mL Dispase) in a shaking incubator for 30 min at 37° C. Tubes were vortexed and passed through a 40 μm cell strainer. […]

In the case of `C=CC(O)C#CC#CC/C=C\CCCCCCC` (stereo in doubt) [PA, 3(R)-(9Z)-heptadeca-1,9-dien-4,6-diyn-3-ol], the “naïve M0 macrophages” value ([1]; p=0.06) was “increased”, the M2 macrophages ([1]; p=0.08) was “non-significantly reduced” and the “transitional M1-M2 macrophages” value ([1]; p=0.12) was “non-significantly reduced”. The “goblet cell count per crypt” value ([2]; Alcian Blue, DSS+Veh -75% vs Control, p=0.0003) was “rescued”, the rectal bleeding ([2]; DAI, vs DSS+Veh) was “decreased” and the stool consistency ([2]; DAI, vs DSS+Veh) was “improved”. For the same compound, the average crypt width ([2]; H&E, DSS+Veh +124% vs Control, Pax vs Control p=0.641) was “not different from Control”, the “reduction in inflammation (endoscopic score)” value ([2]; day 14, vs DSS+Veh, p=0.012) was 63% and the “reduction in total endoscopic scores” value ([2]; day 14, vs DSS+Veh, p=0.014) was 62%. For the same compound, the “reduction in total lesions (endoscopic score)” value ([2]; day 14, vs DSS+Veh, p=0.029) was 58%, the “reduction in erosions (endoscopic score)” value ([2]; day 14, vs DSS+Veh, p=0.033) was 55% and the “reduction in ulcers (endoscopic score)” value ([2]; day 14, vs DSS+Veh, p=0.047) was 62%. The “widening and gaping of the crypts (SEM 3000×)” value ([2]; distal colon) was “partially rescued”, the “edema in the intercellular space of IECs (TEM)” value ([2]; distal colon, edema seen only in DSS+Veh) was “no edema” and the “mucus on mucosa (SEM 2000×)” value ([2]; distal colon, vs DSS+Veh) was “more areas of mucus formation, preservation, and abundance”. For the same compound, the body weight ([2]; end of study, not significant vs DSS+Veh 18.4±0.6, p=0.383) was 19.1 ± 0.4 g, the “CD45+CD4+ helper T-cells in colonic LP” value ([2]; flow cytometry, between DSS-treated groups, p=0.446) was “no significant differences” and the “M1 macrophages in colonic LP” value ([2]; flow cytometry, vs DSS+Veh, p=0.011) was “decreased”. For the same compound, the “relative abundance of naïve (M0) macrophages in colonic LP” value ([2]; flow cytometry, vs DSS+Veh, p=0.019) was “increased”, the “TCRβ+FoxP3+ T-regs in colonic LP” value ([2]; flow cytometry, vs DSS+Veh, p=0.027) was “significantly increased” and the “M2 macrophages in colonic LP” value ([2]; flow cytometry, vs DSS+Veh, p=0.041) was “decreased”. For the same compound, the “LiveCD45+ immune cells in colonic LP” value ([2]; flow cytometry, vs DSS+Veh, p=0.056, not statistically significant) was “trending increase”, the “CD11b+CD68+ macrophages in colonic LP” value ([2]; flow cytometry, vs DSS+Veh, p=0.07, not statistically significant) was “decrease” and the “transitional (M1/M2) macrophages in colonic LP” value ([2]; flow cytometry, within DSS-treated groups, p=0.085) was “no significant differences”. The “crypt width distribution curve” value ([2]; rightward shift Control to DSS+Veh, FIG. 11C) was “significantly (p≤0.05) improved” and the DAI scores ([2]; throughout treatment, vs DSS+Veh) was “significantly (p≤0.05) improved”.
